From patent US9682995B2, “Amino-substituted isothiazoles” (BAYER PHARMA AKTIENGESELLSCHAFT, priority 2013, dated 2017)

How the values were obtained:
[1] = tested on: spindle assembly checkpoint; experiment: SAC-Formation - Paclitaxel-Induced Assay; type: cell-based; details: Homo sapiens; HeLa cells, paclitaxel 0.05 μM, 24 h, phosphorylated histone H3 on serine 10
Method in brief: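 HeLa cells were plated overnight, then given paclitaxel (0.05 μM final) plus compound (0.005-20 μM, 0.5% DMSO) for 24 h at 37° C. Fixed cells were stained for phospho-histone H3 Ser10 and with Hoechst, then imaged to give mitotic index. A fall in mitotic cells marks SAC breakthrough, and values were fit with a four-parameter Hill equation.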

[2] = target: human Bub1 (Homo sapiens (Human), UniProt O43683); experiment: Bub1 kinase assay (TR-FRET); type: biochemical; details: 10 μM ATP; read-out: Bub1 avg (IC50 [mol/l])
Method in brief: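 His6-tagged human Bub1 catalytic domain (aa 704-1085, insect-cell expressed, ~200 ng/ml) preincubated with compound 15 min, then reacted 60 min at 22 °C with 10 μM ATP and 1 μM biotinylated peptide (final) in pH 7.5 Tris buffer. Phosphopeptide detected by TR-FRET 665/620 ratio, normalised to no-inhibitor and no-enzyme controls.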

Sequence of human Bub1 (O43683 704-1085): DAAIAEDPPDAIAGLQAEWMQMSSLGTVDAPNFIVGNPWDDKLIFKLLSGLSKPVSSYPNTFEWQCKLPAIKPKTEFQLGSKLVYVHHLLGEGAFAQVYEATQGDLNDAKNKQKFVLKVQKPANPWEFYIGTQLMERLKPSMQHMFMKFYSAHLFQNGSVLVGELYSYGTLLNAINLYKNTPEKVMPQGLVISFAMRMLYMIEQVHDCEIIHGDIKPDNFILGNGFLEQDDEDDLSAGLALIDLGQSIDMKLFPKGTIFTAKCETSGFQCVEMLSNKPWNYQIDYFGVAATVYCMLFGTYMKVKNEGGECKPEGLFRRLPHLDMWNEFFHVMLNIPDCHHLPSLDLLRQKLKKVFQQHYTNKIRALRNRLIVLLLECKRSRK

Compound | IC50 [1] [nM] | IC50 [2] [nM]
Cc1nsc(Nc2nc3c(C(F)(F)F)cccc3s2)c1C(=O)Nc1ccc(Cl)c(Cl)c1 [Example 102, N-(3,4-Dichlorophenyl)-3-methyl-5-{[4-(trifluoromethyl)-1,3-benzothiazol-2-yl]amino}-1,2-thiazole-4-carboxamide] | 790 | > 20000
CCc1ccccc1NC(=O)c1c(C)nsc1Nc1nc2ccccc2nc1C [Example 21, N-(2-Ethylphenyl)-3-methyl-5-[(3-methylquinoxalin-2-yl)amino]-1,2-thiazole-4-carboxamide] | 3600 | > 20000
COc1ccc(NC(=O)c2c(C)nsc2Nc2cnc3cccc(C)c3n2)cn1 [Example 22, N-(6-methoxypyridin-3-yl)-3-methyl-5-[(8-methylquinoxalin-2-yl)amino]-1,2-thiazole-4-carboxamide] | 260 | > 20000
Cc1nsc(Nc2ccc(C#N)cn2)c1C(=O)Nc1ccc(OC(C)C)nc1 [Example 110, 5-[(5-Cyanopyridin-2-yl)amino]-N-(6-isopropoxyridin-3-yl)-3-methyl-1,2-thiazole-4-carboxamide] | 3800 | > 20000
CNC(=O)c1ccnc(Nc2snc(C)c2C(=O)Nc2ccc(F)c(F)c2)c1 [Example 108, 2-({4-[(3,4-Difluorophenyl)-carbamoyl]-3-methyl-1,2-thiazol-5-yl}amino)-N-methyliso-nicotinamide] | 20000 | > 20000
COc1ccc(NC(=O)c2c(C)nsc2Nc2nccnc2C#N)cn1 [Example 24, 5-[(3-Cyanopyrazin-2-yl)amino]-N-(6-methoxypyridin-3-yl)-3-methyl-1,2-thiazole-4-carboxamide] | 8500 | 3100
CCOC(=O)c1cnc(Nc2snc(C)c2C(=O)Nc2ccc(OC)nc2)s1 [Example 29, Ethyl 2-({4-[(6-methoxypyridin-3-yl)carbamoyl]-3-methyl-1,2-thiazol-5-yl}amino)-1,3-thiazole-5-carboxylate] | 700 | > 20000
CCc1ccccc1NC(=O)c1c(C)nsc1Nc1cc(C(F)(F)F)ccn1 [Example 18, N-(2-Ethylphenyl)-3-methyl-5-{[4-(trifluoromethyl)pyridin-2-yl]amino}-1,2-thiazole-4-carboxamide] | 2000 | > 20000
Cc1nsc(Nc2cc(C#N)ccn2)c1C(=O)Nc1ccc(F)c(F)c1 [Example 27, 5-[(4-Cyanopyridin-2-yl)amino]-N-(3,4-difluorophenyl)-3-methyl-1,2-thiazole-4-carboxamide] | 170 | > 20000
Cc1nsc(Nc2ccn3nccc3n2)c1C(=O)Nc1ccc(F)c(F)c1 [Example 57, N-(3,4-Difluorophenyl)-3-methyl-5-(pyrazolo[1,5-a]pyrimidin-5-ylamino)-1,2-thiazole-4-carboxamide] | 390 | > 20000
CCNC(=O)c1csc(Nc2snc(C)c2C(=O)Nc2ccc(F)c(F)c2)n1 [Example 99, N-(3,4-Difluorophenyl)-5-{[4-(ethylcarbamoyl)-1,3-thiazol-2-yl]amino}-3-methyl-1,2-thiazole-4-carboxamide] | 300 | > 20000
Cc1nsc(Nc2cnc3ccccc3n2)c1C(=O)Nc1ccc(OC(C)C)nc1 [Example 122, N-(6-Isopropoxypyridin-3-yl)-3-methyl-5-(quinoxalin-2-ylamino)-1,2-thiazole-4-carboxamide] | 880 | > 20000
COC(=O)c1cncc(Nc2snc(C)c2C(=O)Nc2ccc(OC)nc2)n1 [Example 101, Methyl 6-({4-[(6-methoxypyridin-3-yl)carbamoyl]-3-methyl-1,2-thiazol-5-yl}amino)pyrazine-2-carboxylate] | 1500 | > 20000
Cc1nsc(Nc2nc3c(C(F)(F)F)cccc3s2)c1C(=O)Nc1ccc(F)c(F)c1 [Example 51, N-(3,4-Difluorophenyl)-3-methyl-5-{[4-(trifluoromethyl)-1,3-benzothiazol-2-yl]-amino}-1,2-thiazole-4-carboxamide] | 35 | > 20000
COc1ccc(NC(=O)c2c(C)nsc2Nc2cc(C#N)ccn2)cn1 [Example 25, 5-[(4-Cyanopyridin-2-yl)amino]-N-(6-methoxypyridin-3-yl)-3-methyl-1,2-thiazole-4-carboxamide] | 1200 | > 20000
CCc1ccccc1NC(=O)c1c(C)nsc1Nc1cnc2cccc(C)c2n1 [Example 33, N-(2-Ethylphenyl)-3-methyl-5-[(8-methylquinoxalin-2-yl)amino]-1,2-thiazole-4-carboxamide] | 730 | > 20000
CCOC(=O)c1cnn2ccc(Nc3snc(C)c3C(=O)Nc3ccc(F)c(F)c3)nc12 [Example 55, Ethyl 5-({4-[(3,4-difluorophenyl)carbamoyl]-3-methyl-1,2-thiazol-5-yl}amino)-pyrazolo[1,5-a]pyrimidine-3-carboxylate] | 460 | > 20000
COc1ccc(Oc2ccc(NC(=O)c3c(C)nsc3Nc3cnc4ccccc4n3)cn2)cc1 [Example 116, N-[6-(4-Methoxyphenoxy)pyridin-3-yl]-3-methyl-5-(quinoxaline-2-ylamino)-1,2-thiazole-4-carboxamide] | 4800 | > 20000
Cc1nsc(Nc2ccc(C#N)cn2)c1C(=O)Nc1ccc(Cl)c(F)c1 [Example 52, N-(4-Chloro-3-fluorophenyl)-5-[(5-cyanopyridin-2-yl)amino]-3-methyl-1,2-thiazole-4-carboxamide] | 16 | > 20000
Cc1nsc(Nc2cnc3ccccc3n2)c1C(=O)Nc1ccc(F)c(F)c1 [Example 50, N-(3,4-Difluorophenyl)-3-methyl-5-(quinoxalin-2-ylamino)-1,2-thiazole-4-carboxamide] | 28 | > 20000
COc1ccc(NC(=O)c2c(C)nsc2Nc2cnc3cc(Cl)ccc3n2)cn1 [Example 23, 5-[(6-Chloroquinoxalin-2-yl)amino]-N-(6-methoxypyridin-3-yl)-3-methyl-1,2-thiazole-4-carboxamide] | 500 | > 20000
CCOC(=O)c1sc(Nc2snc(C)c2C(=O)Nc2ccc(OC)nc2)nc1C [Example 30, Ethyl 2-({4-[(6-methoxypyridin-3-yl)carbamoyl]-3-methyl-1,2-thiazol-5-yl}amino)-4-methyl-1,3-thiazole-5-carboxylate] | 320 | > 20000
Cc1nsc(Nc2nc3c(C(F)(F)F)ccnc3s2)c1C(=O)Nc1ccc(Cl)c(F)c1 [Example 103, N-(4-Chloro-3-fluorophenyl)-3-methyl-5-{[7-(trifluoromethyl)[1,3]thiazolo[5,4-b]pyridin-2-yl]amino}-1,2-thiazole-4-carboxamide] | 820 | > 20000
COc1ccc(NC(=O)c2c(C)nsc2Nc2cnc3c(F)c(F)ccc3n2)cn1 [Example 43, 5-[(5,6-Difluoroquinoxalin-2-yl)amino]-N-(6-methoxypyridin-3-yl)-3-methyl-1,2-thiazole-4-carboxamide] | 110 | > 20000
CCc1ccccc1NC(=O)c1c(C)nsc1Nc1ncccc1C#N [Example 8, 5-[(3-Cyanopyridin-2-yl)amino]-N-(2-ethylphenyl)-3-methyl-1,2-thiazole-4-carboxamide] | 18000 | > 20000
CCc1ccccc1NC(=O)c1c(C)nsc1Nc1nc2ccccc2o1 [Example 11, 5-(1,3-Benzoxazol-2-ylamino)-N-(2-ethylphenyl)-3-methyl-1,2-thiazole-4-carboxamide] | 2900 | 3800
Cc1nsc(Nc2cnc3ccccc3n2)c1C(=O)Nc1ccc(OC2CCCCC2)nc1 [Example 115, N-[6-(Cyclohexyloxy)pyridin-3-yl]-3-methyl-5-(quinoxalin-2-ylamino)-1,2-thiazole-4-carboxamide] | 120 | > 20000
COc1ccc(NC(=O)c2c(C)nsc2Nc2cnc3cc(C(F)(F)F)ccc3n2)cn1 [Example 45, N-(6-Methoxypyridin-3-yl)-3-methyl-5-{[6-(trifluoromethyl)quinoxalin-2-yl]amino}-1,2-thiazole-4-carboxamide] | 140 | > 20000
